Measurements reported in patent publication US6147076A, “Analogues of N-acetylardeemin, method of preparation and uses thereof” (priority 1996, dated 2000).
Several values for one entry are separate records, joined by “and”; a condition that tells them apart may be missing. Equal entries are not always repeated. Where two headings read alike, the source gives them in different places. Numbered stars: 1 amine (or outer) side, 2 acyl side, 3 side chain; on linkers, the order of the positions; unused ones are H or OH. Bridge positions count the residues as written; N and C are the ends. Square brackets hold non-standard residues; d marks the D form. Peptide text beside a SMILES is read from it. I, II: the chains in the order shown. Actinocin(9to1) = Cc1c2oc3c(C)ccc(C(=O)[*:1])c3nc-2c(C(=O)[*:2])c(N)c1=O; NMeV = CN[C@H](C(=O)O)C(C)C; Sar = CNCC(=O)O

How the values were obtained:
DC-3F/ADX cells = assay: Cytotoxicity toward DC-3F/ADX cells; format: cell-based, hamster; details: for IC50: DC3F/ADX, DC-3F/ADX; for (C)/(A): IC50 ratio DC-3F/ADX to DC-3F, * collaterally sensitive
DC-3F hamster lung cells = assay: Cytotoxicity toward DC-3F hamster lung cells
DC-3F/ADII cells [1] = assay: cells; details: Mesocricetus auratus, DC3F
DC-3F/ADII cells [2] = tested on: DC-3F/ADII cells
CCRF-CEM/VBL100 cells [3] = assay: cells; details: Homo sapiens
CCRF-CEM cells [4] = assay: Cytotoxicity / growth inhibition of CCRF-CEM leukemic cells
CCRF-CEM/VM-1 cells = assay: Cytotoxicity toward VM-26-resistant CCRF-CEM/VM-1 cells (mutated Topo II gene); format: cell-based, human
CCRF-CEM/VLB-100 cells = assay: Intracellular accumulation of [3H]vinblastine in CCRF-CEM/VLB-100 cells; format: cell-based, human; details: 30 μM
Description: (§1) *Cells were preloaded with [^3 H]
(§2) times (or without wash) with 100 ml cold medium to remove extracellular
(§3) with or without a reverse prenyl compound or an MDRreversing agent. Cells
(§4) were then separated from radioactive medium by microfuge oillayer method.
(§5) Extracellular space counts carried down # by cells (^3 HInulin space
(§6) were subtracted from the total radioactive counts.

CCRF-CEM cells [5] = assay: Intracellular accumulation of [3H]vinblastine in CCRF-CEM cells; format: cell-based, human; details: 30 μM
Description: as §1, §2, §3, §4, §5, §6

CCRF-CEM/VBL100 cells [6] = tested on: CCRF-CEM/VBL100 cells
CCRF-CEM cells [7] = tested on: CCRF-CEM cells
CCRF-CEM cells [8] = assay: Influx of [3H]VP-16 in CCRF-CEM cells; format: cell-based, human; details: 100 μM, in words
P388/O tumor = assay: Combination therapy of adriamycin & 5-N-acetyl-ardeemin or verapamil in B6D2F1 mice bearing P388/O tumor; details: VPML 70 mg/kg (then 35);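 further: male BDF mice carrying P388/O given intraperitoneally, dosing begun on day 1 on a QDX4, QWX2 schedule, five animals per dose level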
Description: ^a Male BDF mice were inoculated P388/O, 10^6 cells/mouse, i.p. a
starting day 1, QDX4, QWX2.

P388/DX tumor = assay: Combination therapy of adriamycin & 5-N-acetyl-ardeemin or verapamil in B6D2F1 mice bearing P388/DX tumor; details: VPML 70 mg/kg (then 35);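 further: male BDF mice implanted intraperitoneally with P388/DX cells, 10^6 per mouse, dosed from day 1 on a QDX4, QWX2 schedule, five mice per dose group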
Description: ^a Male BDF mice were inoculated P388/DX, 10^6 cells/mouse, i.p.
starting day 1, QDX4, QWX2. There were five mice at every dose and ten

[9] = Mesocricetus auratus, DC3F, read-out: IC50 (A), mean ± spread, mean of the determinations
[10] = Mesocricetus auratus, DC3F, read-out: IC50 (A), single determinations
[11] = read-out: IC50 (A), single determinations
[12] = read-out: IC50, mean ± spread, Table 5A, CCRF-CEM/VLB, mean
[13] = read-out: IC50 of reversing agent, Table 6B, CCRF-CEM/VBL
[14] = Homo sapiens, Table 5A, single determinations
[15] = Homo sapiens, Table 6, CCRF-CEM
[16] = Homo sapiens, read-out: IC50, mean ± spread, Table 5A, CCRF-CEM, mean
[17] = Table 5A, CCRF-CEM/VLB, * collaterally sensitive vs parent
[18] = Table 5A, single determinations
[19] = Homo sapiens, CCRF-CEM, Table 5A, CCRF-CEM/VM-1, read-out: IC50

Row | SMILES | IC50 (CCRF-CEM/VBL100 cells [3]; Table 6, CCRF-CEM/VBL) [µM] | IC50 (CCRF-CEM/VBL100 cells [3]; [12]) [µM] | IC50 (CCRF-CEM cells [4]; [14]) [µM] | IC50 (CCRF-CEM cells [4]; [15]) [µM] | IC50 (CCRF-CEM cells [4]; [16]) [µM] | [3H]vinblastine accumulation (CCRF-CEM/VLB-100 cells; washed) [fmole/10^3 cells] | [3H]vinblastine accumulation (CCRF-CEM/VLB-100 cells; without wash) [fmole/10^3 cells] | [3H]vinblastine accumulation (CCRF-CEM cells [5]; washed) [fmole/10^3 cells] | [3H]vinblastine accumulation (CCRF-CEM cells [5]; without wash) [fmole/10^3 cells] | IC50 (CCRF-CEM/VBL100 cells [3]; [17]) [µM] | IC50 (CCRF-CEM/VBL100 cells [6]; [17]) [µM] | IC50 (CCRF-CEM/VM-1 cells; [19]) [µM] | also measured
1 | Cc1c2oc3c(C)ccc(C(=O)N[C@@H]4C(=O)N[C@H](C(C)C)C(=O)N5CCC[C@H]5C(=O)N(C)CC(=O)N(C)[C@@H](C(C)C)C(=O)O[C@@H]4C)c3nc-2c(C(=O)N[C@@H]2C(=O)N[C@H](C(C)C)C(=O)N3CCC[C@H]3C(=O)N(C)CC(=O)N(C)[C@@H](C(C)C)C(=O)O[C@@H]2C)c(N)c1=O [Actinomycin D, reference compound] (I: T[dV]P[Sar][NMeV] / II: T[dV]P[Sar][NMeV]; ester I:1-I:C, II:1-II:C; linker I:N-II:N via Actinocin(9to1)) | – | – | – | – | – | – | – | – | – | – | – | – | (C)/(A), resistance in words (DC-3F/ADX cells): Very Resistant; IC50 (DC-3F/ADX cells): 1.23 µM; (C)/(A) (DC-3F/ADX cells): 4738.5 X; IC50 (DC-3F hamster lung cells; [9]): 0.00026 ± 5e-05 µM; IC50 (DC-3F hamster lung cells; [10]): 0.00021 µM; IC50 (DC-3F hamster lung cells; [11]): 0.00031 µM; IC50 (DC-3F/ADII cells [1]; read-out: IC50 (B), DC-3F/ADII): 0.0909 µM; (B)/(A), resistance in words (DC-3F/ADII cells [2]): Resistant; (B)/(A) (DC-3F/ADII cells [2]; IC50 ratio DC-3F/ADII to DC-3F, * collaterally sensitive): 349.6 X
2 | C=CC(C)(C)C12CC3C(=O)NCC(=O)N3C1Nc1ccccc12 (stereo not drawn) [Desmethyl-DKP] | – | – | – | – | – | – | – | – | – | – | – | – | IC50 (DC-3F/ADX cells): 199 µM; (C)/(A) (DC-3F/ADX cells): 1.5 X; IC50 (DC-3F hamster lung cells; [9]): 131 ± 14.7 µM; IC50 (DC-3F hamster lung cells; [10]): 116 µM; IC50 (DC-3F hamster lung cells; [11]): 145 µM; IC50 (DC-3F/ADII cells [1]; read-out: IC50 (B)): 103 µM; (B)/(A) (DC-3F/ADII cells [2]): 1.3 X
3 | C=CC(C)(C)C12CC3C(=O)NC(C)C(=O)N3C1Nc1ccccc12 (stereo not drawn) [Diketopiperazine 14(B), Diketopiperazine] | 147 | 94.6 ± 40.8 | 143 | 148 | 132 ± 11.5 | 3.33 | 10.81 | 28.51 | 35.84 | – | – | – | IC50 (CCRF-CEM/VBL100 cells [3]; [13]): 135 µM; IC50 (CCRF-CEM cells [4]; Homo sapiens, read-out: IC50 of reversing agent, Table 6B, CCRF-CEM): 143 µM; IC50 (CCRF-CEM cells [4]; Table 5A, single determinations, listed as DKP 14(B)): 120 µM; IC50 (CCRF-CEM/VM-1 cells; Homo sapiens, CCRF-CEM): 178 µM; IC50 (CCRF-CEM/VM-1 cells; Homo sapiens, CCRF-CEM, read-out: IC50 of reversing agent): 178 µM
4 | C=CC(C)(C)C12CC3C(=O)N(C(C)=O)C(C)C(=O)N3C1N(C(C)=O)c1ccccc12 (stereo not drawn) [Imide Di-Ac-DKP Amide 14(D), imide diacetate diketopiperazine] | 37.1 | 54.7 ± 3.3 | 103 | 62.5 | 83.4 ± 23.4 | 4.01 | 15.92 | 28.36 | 34.54 | 51.4 | 58 | 81.4 | IC50 (CCRF-CEM cells [4]; [18]): 64 µM; IC50 (CCRF-CEM/VM-1 cells; Homo sapiens, CCRF-CEM, Table 5A, CCRF-CEM/VM-1, mean, read-out: IC50, mean ± spread): 85.2 ± 4 µM; IC50 (CCRF-CEM/VM-1 cells; Table 5A, CCRF-CEM/VM-1, read-out: IC50): 89 µM
5 | C=CC(C)(C)C12CC3C(=O)N(C(C)=O)C(C)C(=O)N3C1Nc1ccccc12 (stereo not drawn) [Imide-Ac-DKP 14(A), imide acetate diketopiperazine] | 39.7 | 38 ± 1.8 | 48.1 | 48.1 | 61 ± 13.1 | 4.52 | 18.93 | 30.18 | 34.87 | 39.7 | 36.2 | 50 | IC50 (CCRF-CEM cells [4]; [18]): 47.9 µM and 87 µM
6 | C=CC(C)(C)C12CC3C(=O)N(C(=O)OC(C)(C)C)C(C)C(=O)N3C1Nc1ccccc12 (stereo not drawn) [Imide-BOC-DKP 14(C), imide-BOC diketopiperazine] | 65.4 | 92.9 ± 27.3 | – | 88.7 | 204 ± 116 | 6.10 | 25.44 | 30.29 | 35.56 | 65.4 | 120 | 205 | –
7 | COc1cc(NS(C)(=O)=O)ccc1Nc1c2ccccc2nc2ccccc12 [M-AMSA, reference compound] | – | – | – | – | – | – | – | – | – | – | – | – | IC50 (CCRF-CEM/VBL100 cells [6]; ccrf-cem/vbl100 cells): 0.656 µM; IC50 (CCRF-CEM/VM-1 cells; ccrf-cem/vm-1 cells): 2.55 µM; IC50 (CCRF-CEM cells [7]): 0.184 µM; IC50 (DC-3F/ADII cells [2]; dc-3f/adii cells): 0.032 µM
8 | COc1ccc(CCN(C)CCCC(C#N)(c2ccc(OC)c(OC)c2)C(C)C)cc1OC (stereo not drawn) [Verapamil, verapamil] | – | – | – | – | – | – | – | – | – | – | – | – | IC50 (CCRF-CEM/VBL100 cells [6]; [13]): 118 µM; VP-16 accumulation (CCRF-CEM cells [8]): also increased VP-16 accumulation; % ILS (P388/O tumor): +1%; MST (P388/O tumor): 7.7 days; Days survived (P388/O tumor; individual mice 1-5): 7.0 days and 8.0 days and 8.6 days; % ILS (P388/DX tumor): +5%; MST (P388/DX tumor): 7.9 days; Days survived (P388/DX tumor; individual mice 1-5): 6.5 days and 7.25 days and 8.25 days and 9.25 days; IC50 (CCRF-CEM cells [4]; read-out: IC50 of reversing agent, Table 6B): 296 µM; IC50 (CCRF-CEM/VM-1 cells; Table 6B, CCRF-CEM/VM-1, read-out: IC50 of reversing agent): 118 µM; collateral sensitivity (DC-3F/ADII cells [2]; in words): Collateral sensitivity is also observed
